Where “and” joins values, the source holds several entries; their conditions need not be identical. Equal entries are not always repeated. Where two headings read alike, the source gives them in different places. Where no end group is shown, it is not given here. [ ]: non-standard residue; d: D form. Cit = NC(=O)NCCC[C@H](N)C(=O)O; Nle = CCCC[C@H](N)C(=O)O
Assays:
[1] = system: PBMC samples from HCV patients; assay: Human IFN-gamma cytotoxic T-cell (CTL) response by ELISPOT assay; assay type: cell-based
Procedure: Human IFN-Gamma Cytotoxic T-Cell (CTL) Response by ELISPOT Assay
Briefly, at day 1, PBMC samples from HCV patients were incubated in flasks (430 000 PBMCs/cm2) for 2 h at 37° C., 5% CO2 in covering amount of culture media (RPMI 1640 Fisher Scientific; Cat No. PAAE15-039 supplemented with L-Glutamine, (MedProbe Cat. No. 13E17-605E, 10% Foetal Bovine serum (FBS), Fisher Scientific Cat. No. A15-101) and Penicillin/Streptomycin, (Fisher Acientific Cat. No. P11-010) in order to allow adherence of monocytes. Non-adherent cells were isolated, washed, and frozen in 10% V/V DMSO in FBS until further usage. Adherent cells were carefully washed with culture media, followed by incubation at 37° C. until day 3 in culture media containing 2 μg/ml final concentration of hrGM-CSF (Xiamen amoytop biotech co, cat no: 3004.9090.90) & 1 μg/ml hrIL-4 (Invitrogen, Cat no: PHC0043), and this procedure was then repeated at day 6. At day 7, cultured dendritic cells (5 000-10 000 per well) were added to ELISPOT (Millipore multiscreen HTS) plates coated with 0.5 μg/well anti-human γ Interferon together with thawed autologous non-adherent cells (200 000 per well), antigen samples (1-8 ug/ml final concentration for peptide antigens; 5 ug/ml final concentration for Concanavalin A (Sigma, Cat no: C7275) or PHA (Sigma, Cat no: L2769)) & anti-Anergy antibodies (0.03-0.05 ug/ml final concentration for both anti-PD-1 (eBioscience, cat no: 16-9989-82) & anti-PD-L1 (eBioscience, cat no: 16-5983-82)). Plates were incubated overnight and spots were developed according to manufacturer. Spots were read on ELISPOT reader (CTL-ImmunoSpot® S5 UV Analyzer).

human PBMCs [2] = assay type: cell-based
human PBMCs [3] = assay: Extracellular staining for biotinylated peptides (flow cytometry); assay type: cell-based
Procedure: (§1) 96-well U-bottom polystyrene plates (NUNC, cat no: 163320) were used for staining of human PBMCs. Briefly, 8 ul of N- or C-terminally biotinylated peptides according to table 1 or table 2 (i.e. 5 mM, 2.5 mM & 1.25 mM tested for each peptide; all peptides manufactured by Schafer) were incubated at 37° C. for 2 h with 40 ul of PBMC (12.5×10^6 cells/ml) from blood donors. Cells were then washed 3× with 150 ul of Cellwash (BD, cat no: 349524), then stained with Streptavidin-APC (BD, cat no: 554067) & Anti-hCD11c (eBioscience, cat no: 12-0116) according to manufacturer at 4° C. for 30 min aiming to visualize biotinylated peptides & dendritic cells, respectively. Cells were then washed 3× with 150 ul of Cellwash (BD, cat no: 349524), followed by resuspension in staining buffer (BD, cat no: 554656) before flow cytometry. Dendritic cells were gated as CD11c+ events outside lymphocyte region (i.e. higher FSC & SSC signals than lymphocytes). 200 000 total cells were acquired on a FACSCanto II flow cytometer with HTS loader, and histograms for both total cells & dendritic cells with respect to peptide-fluorescence (i.e. GeoMean) were prepared.

DC-cells = assay: Cell penetration assay: staining for biotinylated peptides, dendritic cells gated as CD11c+; assay type: cell-based, human; details: low concentration of peptides (208 uM)
Procedure: A set of peptides were biotinylated on N-terminal, and different combinations of aminoacids, with respect to length and type, were added to the sequence box X^1, X^3 and X^4 in the peptides as illustrated by the diagram below. The peptides were tested on cells grown from one individual blood donor.
as §1, with “for each peptide) were incubated” for “for each peptide; all peptides manufactured by Schafer) were incubated”, “no: 349524), followed by resuspension of each cell pellet with 100 ul of Trypsin-EDTA (Sigma, cat no: T4424), then incubated at 37° C. for 5 min. Trypsinated cells were then washed 3× with 150 ul of Cellwash (BD, cat no: 349524), followed by resuspension with BD Cytofix/Cytoperm™ plus (BD, cat no: 554715), then incubated at 4° C. for 20 min according to manufacturer. Cells were then washed 2× with 150 ul PermWash (BD, cat no: 554715). Cells were then stained” for “no: 349524), then stained”, “150 ul PermWash, followed by” for “150 ul of Cellwash (BD, cat no: 349524), followed by”
As shown in table 4 the peptides according to the invention had the ability to allocate through the cell membrane.

HLA-A1 = assay: REVEAL binding assay; details: score as percentage of the signal generated by the positive control peptide
HLA-A24 = assay: REVEAL binding assay; details: score as percentage of the signal generated by the positive control peptide
HLA-A29 = assay: REVEAL binding assay; details: score as percentage of the signal generated by the positive control peptide
HLA-B8 = assay: REVEAL binding assay; details: score as percentage of the signal generated by the positive control peptide
Source text: (§3) HLA-A1, HLA-A2, HLA-A3, HLA-A11, HLA-A24, HLA-A29, HLA-B7, HLA-B8, HLA-B14, HLA-B15, HLA-B27, HLA-B35, HLA-B40.
(§4) The REVEAL™ binding assay determined the ability of each candidate peptide to bind to one or more MHC class I alleles and stabilizing the MHC-peptide complex. […] Detection is based on the presence or absence of the native conformation of the MHC-peptide complex. Each peptide is given a score relative to the positive control peptide, which is a known T cell epitope.

HLA-B14 = assay: REVEAL binding assay; details: score as percentage of the signal generated by the positive control peptide
HLA-B15 = assay: REVEAL binding assay; details: score as percentage of the signal generated by the positive control peptide
HLA-A11 = HLA-A11 (Homo sapiens, UniProt P04439, A114D/F33Y/S129P); assay: REVEAL binding assay; details: score as percentage of the signal generated by the positive control peptide
Outline: (§2)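 Synthetic nonamer peptides were tested for their ability to bind and stabilize MHC class I–peptide complexes, detected by the native conformation of the complex. Each peptide is scored relative to a positive-control known T-cell epitope.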

HLA-A2 = HLA-A2 (Homo sapiens, UniProt P04439, D140Y/D185E/D98H/E176V/E277Q/G131W/G231S/I119V/I121R/I166T/I218V/N151K/N90K/P208A/P217A/Q86G/Q94H/R138H/R169H); assay: REVEAL binding assay; details: score as percentage of the signal generated by the positive control peptide
Outline: as §2

HLA-A3 = HLA-A3 (Homo sapiens, UniProt P04439); assay: REVEAL binding assay; details: score as percentage of the signal generated by the positive control peptide
Outline: as §2

HLA-B27 = HLA-B27 (Homo sapiens, UniProt P01889, D138H/D201E/E176V/E204Q/G107R/H137Y/K202T/N104T/N87E/Q56L/Q94K/R106L/R155S/R180L/S101D/S121N/S48T/Y140D/Y33H/Y91C); assay: REVEAL binding assay; details: score as percentage of the signal generated by the positive control peptide
Outline: as §2

HLA-B7 = HLA-B7 (Homo sapiens, UniProt P01889); assay: REVEAL binding assay; details: score as percentage of the signal generated by the positive control peptide
Outline: as §2

HLA-B35 = assay: REVEAL binding assay; details: score as percentage of the signal generated by the positive control peptide
Source text: as §3, §4

HLA-B40 = assay: REVEAL binding assay; details: score as percentage of the signal generated by the positive control peptide
Outline: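 Synthetic ninemer peptides were tested for stabilising native MHC class I–peptide complexes, detected by conformation. Score is the signal as a percentage of a known T-cell epitope positive control, with pass/fail call; an intermediate-affinity control peptide checks assay performance.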

[4] = Example 4, negative control = 1.00

Chain of HLA-A3 (P04439 25-299): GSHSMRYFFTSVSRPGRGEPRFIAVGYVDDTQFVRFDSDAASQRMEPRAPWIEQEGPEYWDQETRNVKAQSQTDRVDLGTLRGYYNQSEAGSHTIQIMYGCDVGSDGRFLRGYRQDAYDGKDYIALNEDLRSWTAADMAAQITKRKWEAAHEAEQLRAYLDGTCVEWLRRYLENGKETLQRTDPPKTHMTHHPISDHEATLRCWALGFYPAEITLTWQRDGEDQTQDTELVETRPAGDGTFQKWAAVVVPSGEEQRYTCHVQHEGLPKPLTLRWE
Chain of HLA-A3 (P61769 21-119, further chain): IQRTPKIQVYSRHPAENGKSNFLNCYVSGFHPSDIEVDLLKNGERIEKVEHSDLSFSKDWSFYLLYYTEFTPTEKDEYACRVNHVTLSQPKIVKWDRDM
Chain of HLA-B7 (P61769 21-119): as the sequence (P61769 21-119, further chain) above
Chain of HLA-B7 (P01889 25-299): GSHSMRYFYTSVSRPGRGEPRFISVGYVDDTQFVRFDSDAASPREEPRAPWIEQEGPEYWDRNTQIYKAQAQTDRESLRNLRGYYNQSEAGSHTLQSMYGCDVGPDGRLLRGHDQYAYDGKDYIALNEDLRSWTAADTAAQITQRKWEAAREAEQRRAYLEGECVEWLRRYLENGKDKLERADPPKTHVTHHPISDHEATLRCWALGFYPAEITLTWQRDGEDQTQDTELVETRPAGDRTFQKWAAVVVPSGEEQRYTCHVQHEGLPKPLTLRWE

Concanavalin A [ConA, reference compound]
IFN-g ELISPOT (T-cell spots) ([1]; Patient A (HCV patient)): 5090 and 5035
IFN-g ELISPOT (T-cell spots) ([1]; Patient B (HCV patient)): 2605 and 2725
IFN-g ELISPOT (T-cell spots) ([1]; Patient C (HCV patient)): 1355 and 700
IFN-g ELISPOT (T-cell spots) ([1]; Patient D (HCV patient)): 529 and 512

EEGYIPLVGAPLGEEVARALAHGVRV [compound 10, HCV (Not scaffold)]
Intracellular staining, median (human PBMCs [2]): 1.16
Extracellular staining, median (human PBMCs [3]): 1.95

GGGYIPLVGAPLGGGVARALAHGVRV [compound 11, HCV (Not scaffold)]
Intracellular staining, median (human PBMCs [2]): 2.01
Extracellular staining, median (human PBMCs [3]): 2.62

GYIPLVGAPLGGVARALAHGVRV [compound 5]
Intracellular staining, median (human PBMCs [2]): 1.84
Extracellular staining, median (human PBMCs [3]): 2.08

PVVHLTLRQAGDDFSR [N-biotin, reference compound]
Intracellular staining, median (human PBMCs [2]): 1.00
Results on DC-cells (geomean peptide-fluorescence) (DC-cells; BC 16): 3591 and 2271
Results on DC-cells (geomean peptide-fluorescence) (DC-cells; BC 16, listed as n-biotin): 3745
Results on DC-cells (geomean peptide-fluorescence) (DC-cells; BC43): 3631
Results on DC-cells (geomean peptide-fluorescence) (DC-cells; BC43, listed as n-biotin): 1967
Extracellular staining, median (human PBMCs [3]; [4]): 1.00

RGYIPLVGAPLGRRRVARALAHGVRVR [compound 6]
Intracellular staining, median (human PBMCs [2]): 5.35
Extracellular staining, median (human PBMCs [3]): 2.20

RGYLPAVGAPIGRRRVIRVIAHGLRLR [compound 7]
Intracellular staining, median (human PBMCs [2]): 11.59
Extracellular staining, median (human PBMCs [3]): 29.42

RQIKIWFQNRRMKWKK [P-biotin, reference compound]
Intracellular staining, median (human PBMCs [2]): 2.73
Results on DC-cells (geomean peptide-fluorescence) (DC-cells; BC43): 26212 and 33545
Extracellular staining, median (human PBMCs [3]; [4]): 9.15

RRGGGQIVGGVYLLPRRGPRLGVRATR [compound 14]
Intracellular staining, median (human PBMCs [2]): 4.81
Extracellular staining, median (human PBMCs [3]): 17.00

RRGPVVHLTLRRRGQAGDDFS [compound 2, Neg control in scaffold, reference compound]
Intracellular staining, median (human PBMCs [2]): 4.12
Extracellular staining, median (human PBMCs [3]): 1.77

RRGYIPLVGAPLGBRVARALAHGVRV [51b]
Results on DC-cells (geomean peptide-fluorescence) (DC-cells; BC 16): 7000
Results on DC-cells (geomean peptide-fluorescence) (DC-cells; BC43): 6082
IFN-g ELISPOT (T-cell spots) ([1]; Patient A (HCV patient), listed as 310-51b): 45 and 40
IFN-g ELISPOT (T-cell spots) ([1]; Patient B (HCV patient), listed as 310-51b): 50 and 85
IFN-g ELISPOT (T-cell spots) ([1]; Patient C (HCV patient), listed as 310-51b): 45 and 75
IFN-g ELISPOT (T-cell spots) ([1]; Patient D (HCV patient), listed as 310-51b): 9 and 13

RRGYIPLVGAPLGRRRVARALAHGVRV [compound 9]
Intracellular staining, median (human PBMCs [2]): 3.25
Extracellular staining, median (human PBMCs [3]): 2.06

RRGYIPLVGAPLGRRVARALAHGVRV [compound 8]
Intracellular staining, median (human PBMCs [2]): 6.92
Extracellular staining, median (human PBMCs [3]): 3.06

RRIRNLGRVIETLTGBRLZGYIPLIGA [compound 42]
Results on DC-cells (geomean peptide-fluorescence) (DC-cells; BC 16): 74920
Results on DC-cells (geomean peptide-fluorescence) (DC-cells; BC43): 65811
IFN-g ELISPOT (T-cell spots) ([1]; Patient A (HCV patient), listed as 310-42): 75 and 80
IFN-g ELISPOT (T-cell spots) ([1]; Patient D (HCV patient), listed as 310-42): 13 and 11

RRIRNLGRVIETLTLZGYIPLIGARRIRNLGRVIETLTLZGYIPLIGAR [compound 20]
Intracellular staining, median (human PBMCs [2]): 13.25
Extracellular staining, median (human PBMCs [3]): 126.5

RRSRNLGKVIDTLTCRRLMGYIPLVGA [compound 13]
Intracellular staining, median (human PBMCs [2]): 21.43
Extracellular staining, median (human PBMCs [3]): 16.80

WGYIPLVGAPLGRRVARALAHGVRV [compound 19]
Intracellular staining, median (human PBMCs [2]): 17.41
Results on DC-cells (geomean peptide-fluorescence) (DC-cells; BC 16): 8417
Results on DC-cells (geomean peptide-fluorescence) (DC-cells; BC43): 6372
Extracellular staining, median (human PBMCs [3]): 1.37

[Cit]IGVRAT[Cit]R
REVEAL binding score, HLA-type A1 (HLA-A1): 19.68%
REVEAL binding score, HLA-type A24 (HLA-A24): 0.50%
REVEAL binding score, HLA-type A29 (HLA-A29): 16.67%
REVEAL binding score, HLA-type B8 (HLA-B8): 12.09%
REVEAL binding score, HLA-type B14 (HLA-B14): 0.17%
REVEAL binding score, HLA-type B15 (HLA-B15): 14.45%
REVEAL binding score, HLA-type A11 (HLA-A11): 8.27%
REVEAL binding score, HLA-type A2 (HLA-A2): 8.17%
REVEAL binding score, HLA-type A3 (HLA-A3): 25.16%
REVEAL binding score, HLA-type B27 (HLA-B27): 0.86%
REVEAL binding score, HLA-type B7 (HLA-B7): 14.59%
REVEAL binding score, HLA-type B35 (HLA-B35): 8.51%
REVEAL binding score, HLA-type B40 (HLA-B40): 18.45%

[Nle]GYIPLIGA
REVEAL binding score, HLA-type A1 (HLA-A1): 17.87%
REVEAL binding score, HLA-type A24 (HLA-A24): 1.33%
REVEAL binding score, HLA-type A29 (HLA-A29): 27.85%
REVEAL binding score, HLA-type B8 (HLA-B8): 21.35%
REVEAL binding score, HLA-type B14 (HLA-B14): 0.29%
REVEAL binding score, HLA-type B15 (HLA-B15): 11.07%
REVEAL binding score, HLA-type A11 (HLA-A11): 7.27%
REVEAL binding score, HLA-type A2 (HLA-A2): 10.43%
REVEAL binding score, HLA-type A3 (HLA-A3): 3.13%
REVEAL binding score, HLA-type B27 (HLA-B27): 1.42%
REVEAL binding score, HLA-type B7 (HLA-B7): 1.78%
REVEAL binding score, HLA-type B35 (HLA-B35): 5.89%
REVEAL binding score, HLA-type B40 (HLA-B40): 60.84%
